Laboratory results reported in paper PMC12386934, “Characteristics and Potential of KSL, KSL-W, and Dadapin-1 Antimicrobial Peptides for Preventing Infections of Orthopedic Prosthetic Devices: Identifying the Most Robust Candidate” (International Journal of Molecular Sciences, 2025).
In brackets after ≈: the same amount, converted by molar mass. Where a SMILES comes first, the peptide text is derived from it.

How the values were obtained:
Format in all cases: cell-based
[1] = tested on: E. faecalis cra4024 (EF 01)
Text: (§1) The experimental scheme reported in Figure 6 helped to simplify and optimize the in vitro testing of the antibacterial activity of the different AMPs. The initial transparent microtiter plate for the determination of the minimum inhibitory concentration (MIC) by optical density (OD) measurement was conveniently used as a starting point not only for the alterative determination of the MIC by luminescence but also for the minimum bactericidal concentration (MBC) and for the minimum biofilm inhibitory concentration (MBIC), as explained below. For every test peptide, at least three independent experiments were performed on each bacterial strain per test condition (100% MHB and 20% MHB). The sole exception to this rule was when MIC values were on rare occasions found to be greater than 500 µg/mL. Under these circumstances, two consecutive experiments were performed to confirm the results. In this case, the antibacterial activity was considered insignificant and the third experiment was generally considered unnecessary.
(§2) The antibacterial properties of the test AMPs were assayed under two distinct conditions of bacterial culture: (i) with bacteria cultured in undiluted Mueller–Hinton II Broth (MHB II) and (ii) with bacteria cultured in diluted MHB II as earlier described in Campoccia et al.. Briefly, a few colonies of each bacterial strain, taken from overnight cultures on Mueller–Hinton Agar plates (MHA, PO50007A, ThermoScientific, Thermo Fisher Scientific, Segrate, Italy), were resuspended in Mueller–Hinton II Broth (MHB II, 24107, Liofilchem, Roseto degli Abruzzi, Italy), either undiluted or at a 20% dilution in deionized water. The concentration of bacteria was adjusted to approximately 10^8 CFU/mL, as estimated by optical density reading at 625 nm, using a Hewlett Packard G1103A spectrophotometer (Waldbronn, Germany). The bacterial suspension was further diluted 1:100 in 100% or 20% MHB II.
(§3) Serial 1:2 dilutions of all the test peptides were prepared in sterile deionized water starting from a stock solution of 1 mg/mL. Microtiter plates (96-Well CytoOne® Plate, CC7672-7596, Starlab S.r.l., Milano, Italy) were prepared by adding a volume of 100 µL of inoculum to 100 µL of treatment. Each AMP dilution was assayed in triplicate; each microplate included triplicate wells for the blank (100 µL of sterile distilled water and 100 µL of sterile MHB II), and 3 to 6 wells for reference control of 100% growth (100 µL of sterile deionized water and 100 µL of MHB II inoculated with the bacterium). Positive controls were performed in triplicate wells with 100 µL of a 10 mg/mL gentamicin solution (G1272, Sigma Aldrich, Milan, Italy) and with 100 µL of a solution containing 10,000 units/mL of penicillin and 10,000 µg/mL of streptomycin (penicillin–streptomycin, 15140-122, Life Technologies, Monza, Italy).
(§4) The wells of the microplate, initially used for the determination of the MIC, were rinsed twice with 220 µL of phosphate-buffered solution (PBS) to remove loosely attached and planktonic bacteria. A total of 100 µL of fresh PBS and 100 µL of Bac-Titer Glo solution (G8231, Promega Italia S.r.l., Milan, Italy) were added to each well. After a 10 min incubation, a volume of 100 µL was transferred to a new microplate for luminescence determination as described above. As a general rule, the MBIC value was identified as the concentration at which a reduction of at least a log in the metabolic activity was observed.

[2] = tested on: E. faecalis cra4033 (EF 02)
Text: as §1, §2, §3, §4

[3] = tested on: S. epidermidis cra4029 (SE 02)
Text: as §1, §2, §3, §4

[4] = tested on: S. aureus cra4030 (SA 01); details: cra4030 (SA 01, 24 h)
Text: as §1, §2, §3, §4

[5] = tested on: P. aeruginosa cra3840 (PA 02); details: cra3840 (PA 02, 24 h)
Text: as §1, §2, §3, §4

[6] = tested on: S. epidermidis cra4034 (SE 01); details: cra4034 (SE 01)
Text: as §1, §2, §3, §4

E. coli cra4038 (EC) = details: cra4038 (EC)
Text: as §1, §2, §3, §4

[7] = tested on: S. aureus cra2198 (SA 02); details: cra2198 (SA 02)
Text: as §1, §2, §3, §4

[8] = tested on: P. aeruginosa cra4004 (PA 01)
Text: as §1, §2, §3, §4

[9] = tested on: E. faecalis cra4033 (EF 02); remark: listed apart in the source
Text: as §1, §2, §3
(§5) After a 1-day incubation at 37 °C, the MIC was determined by two distinct methods: (1) optical density measurement and (2) bioluminescence reading. In the first case, the optical density of the microtiter plates was read directly at a wavelength of 600 nm and the MIC was estimated from the curves obtained by plotting the OD measurements. For the bioluminescence reading, after gentle resuspension, 100 µL of each treated culture was transferred to a new 96-well non-treated plate (236105/237105, Life Technologies, Monza, Italy) and the metabolic activity was determined by the kit Bac-Titer Glo Microbial Cell Viability Assay (G8231, Promega Italia S.r.l, Milan, Italy). Optical density and bioluminescence were read by a Modulus II multifunction plate reader (Turner BioSystems, Sunnyvale, CA, USA) or, alternatively, by an Infinite M Plex (Tecan Group Ltd., Männedorf, Switzerland). As earlier described in [24], in the case of luminescence, the MIC was identified from the curves of growth inhibition as the first concentration leading to a 1-log reduction in bacterial growth (i.e., 90% growth inhibition). […]

[10] = tested on: S. epidermidis cra4029 (SE 02); remark: listed apart in the source
Text: as §1, §2, §3, §5

[11] = tested on: S. epidermidis cra4029 (SE 02); remark: listed apart in the source
Text: as §1
as §2, with “II. […]” for “II.”
For assessing the MBC, 10 μL of bacterial suspensions was taken from wells corresponding to MIC, 2× MIC, and 4× MIC and then plated on MHA plates. […] The MBC was determined as the lowest dilution causing absence of bacterial colonies growth on the plate.
In order to assess the extent of the interference of the culture medium composition with the antibacterial activity of the three peptides, a “Rate of Abatement” of the bactericidal properties (RoA) was calculated using the following formula (Equation (1)):RoA = MBCMHB/MBC20% MHB(1)
RoA indicates the fold increases in the MBC when tested in undiluted medium […], i.e., with maximal interference of broth polyanionic substances, with respect to diluted medium […]. […] A more versatile measure to express the loss of activity was calculated as follows. […]

CC(C)[C@H](NC(=O)[C@H](Cc1c[nH]c2ccccc12)NC(=O)[C@H](Cc1ccccc1)NC(=O)[C@@H](NC(=O)[C@@H](NC(=O)[C@H](CCCCN)NC(=O)[C@@H](N)CCCCN)C(C)C)C(C)C)C(=O)N[C@@H](CCCCN)C(=O)N[C@@H](Cc1ccccc1)C(=O)N[C@@H](CCCCN)C(=O)O [KSL-W] (H-KKVVFWVKFK-OH)
LR, Log10 reduction in bacterial metabolism for a given MBIC ([1]; cra4024 (EF 01)): 3 LR
MBIC ([1]; cra4024 (EF 01, 24 h)): 3.91 to 7.81 µg/mL
LR, Log10 reduction in bacterial metabolism for a given MBIC ([2]; cra4033 (EF 02)): 2 LR
MBIC ([2]; cra4033 (EF 02, 24 h)): 3.91 µg/mL
LR, Log10 reduction in bacterial metabolism for a given MBIC ([3]; cra4029 (SE 02)): 2 LR
MBIC ([3]; cra4029 (SE 02, 24 h)): 0.24 to 0.49 µg/mL
MBIC [4]: 31.25 µg/mL
MBIC [5]: 31.25 µg/mL
LR, Log10 reduction in bacterial metabolism for a given MBIC [6]: 3 LR
LR, Log10 reduction in bacterial metabolism for a given MBIC (E. coli cra4038 (EC)): 3 LR
LR, Log10 reduction in bacterial metabolism for a given MBIC [7]: 3 LR
LR, Log10 reduction in bacterial metabolism for a given MBIC [8]: 2 LR
MIC [9]: 15.63 to 31.25 µg/mL
MIC [10]: 0.49 to 0.98 µg/mL
MBC [11]: 1.95 µg/mL (≈ 1.49 µM)
